# Species: Rattus norvegicus
# Test: Open TG-GATES - Regimen: Single
# Format: toxicity, organism-based, Sprague-Dawley
# Set-up: regimen Single, gender Male, age 6 weeks
# Conditions: in vivo, ip, 1000 mg/kg, route intraperitoneal injection, dose level High; for APTT / Bas / Eos / Fbg / Hb / Ht / Lym / MCH / MCHC / MCV / Mono / Neu / PT / Plat / RBC / Ret / WBC: tissue Blood; for KIDNEY_L / KIDNEY_R / KIDNEY_TOTAL: tissue Kidney; for LIVER: tissue Liver; for A/G / ALP / ALT / AST / BUN / CRE / Ca / Cl / DBIL / GLC / IP / K / LDH / Na / PL / RALB / TBIL / TC / TG / TP / gamma-GTP: tissue Plasma
smiles,measurement,setting,value
N[C@H]1C(O)O[C@H](CO)[C@@H](O)[C@@H]1O (some centres not stated) [GLUCOSAMINE],TERMINAL_BW,3 h,188.7 g
same,APTT,3 h,21 s
same,Bas,3 h,0.2%
same,Eos,3 h,0.8%
same,Fbg,3 h,265 mg/dL
same,Hb,3 h,12.8 g/dL
same,Ht,3 h,39.4%
same,Lym,3 h,73.6%
same,MCH,3 h,21 pg
same,MCHC,3 h,32.4%
same,MCV,3 h,64.9 fL
same,Mono,3 h,3.4%
same,Neu,3 h,21.2%
same,PT,3 h,16.7 s
same,Plat,3 h,106.7 x10_4/uL
same,RBC,3 h,608 x10_4/ul
same,Ret,3 h,9.6%
same,WBC,3 h,92.4 x10_2/uL
same,KIDNEY_L,3 h,0.8 g
same,KIDNEY_R,3 h,0.8 g
same,KIDNEY_TOTAL,3 h,1.6 g
same,LIVER,3 h,8.9 g
same,A/G,3 h,0.9
same,ALP,3 h,1493 IU/L
same,ALT,3 h,50 IU/L
same,AST,3 h,92.6 IU/L
same,BUN,3 h,12 mg/dL
same,CRE,3 h,0.2 mg/dL
same,Ca,3 h,10.6 mg/dL
same,Cl,3 h,110 meq/L
same,DBIL,3 h,0.012 mg/dL
same,GLC,3 h,167.2 mg/dL
same,IP,3 h,7.1 mg/dL
same,K,3 h,3.9 meq/L
same,LDH,3 h,93.4 IU/L
same,Na,3 h,143.4 meq/L
same,PL,3 h,129.4 mg/dL
same,RALB,3 h,2.5 g/dL
same,TBIL,3 h,0.064 mg/dL
same,TC,3 h,71.4 mg/dL
same,TG,3 h,25 mg/dL
same,TP,3 h,5.2 g/dL
same,gamma-GTP,3 h,1 IU/L
same,TERMINAL_BW,6 h,187.1 g
same,APTT,6 h,18.1 s
same,Bas,6 h,0%
same,Eos,6 h,0.2%
same,Fbg,6 h,246.6 mg/dL
same,Hb,6 h,13.4 g/dL
same,Ht,6 h,41.5%
same,Lym,6 h,62.8%
same,MCH,6 h,21 pg
same,MCHC,6 h,32.3%
same,MCV,6 h,65.1 fL
same,Mono,6 h,1.4%
same,Neu,6 h,34.4%
same,PT,6 h,18.9 s
same,Plat,6 h,102.2 x10_4/uL
same,RBC,6 h,637.8 x10_4/ul
same,Ret,6 h,9%
same,WBC,6 h,60.4 x10_2/uL
same,KIDNEY_L,6 h,0.9 g
same,KIDNEY_R,6 h,0.8 g
same,KIDNEY_TOTAL,6 h,1.7 g
same,LIVER,6 h,8.4 g
same,A/G,6 h,0.9
same,ALP,6 h,1303.2 IU/L
same,ALT,6 h,131 IU/L
same,AST,6 h,226.6 IU/L
same,BUN,6 h,12.2 mg/dL
same,CRE,6 h,0.2 mg/dL
same,Ca,6 h,10.3 mg/dL
same,Cl,6 h,107.8 meq/L
same,DBIL,6 h,0.02 mg/dL
same,GLC,6 h,159.4 mg/dL
same,IP,6 h,8.2 mg/dL
same,K,6 h,3.7 meq/L
same,LDH,6 h,316.4 IU/L
same,Na,6 h,142.8 meq/L
same,PL,6 h,125.6 mg/dL
same,RALB,6 h,2.3 g/dL
same,TBIL,6 h,0.072 mg/dL
same,TC,6 h,68.8 mg/dL
same,TG,6 h,17.8 mg/dL
same,TP,6 h,5 g/dL
same,gamma-GTP,6 h,1 IU/L
same,TERMINAL_BW,9 h,182.7 g
same,APTT,9 h,18.9 s
same,Bas,9 h,0%
same,Eos,9 h,0.8%
same,Fbg,9 h,289.2 mg/dL
same,Hb,9 h,13.2 g/dL
same,Ht,9 h,40.3%
same,Lym,9 h,68%
same,MCH,9 h,21.1 pg
same,MCHC,9 h,32.7%
same,MCV,9 h,64.6 fL
same,Mono,9 h,2.2%
same,Neu,9 h,28.2%
same,PT,9 h,17.4 s
same,Plat,9 h,108.7 x10_4/uL
same,RBC,9 h,624.8 x10_4/ul
same,Ret,9 h,9.7%
same,WBC,9 h,63.8 x10_2/uL
same,KIDNEY_L,9 h,0.8 g
same,KIDNEY_R,9 h,0.8 g
same,KIDNEY_TOTAL,9 h,1.6 g
same,LIVER,9 h,7.5 g
same,A/G,9 h,0.9
same,ALP,9 h,1707.4 IU/L
same,ALT,9 h,72.2 IU/L
same,AST,9 h,136.6 IU/L
same,BUN,9 h,9.4 mg/dL
same,CRE,9 h,0.2 mg/dL
same,Ca,9 h,10.3 mg/dL
same,Cl,9 h,108.8 meq/L
same,DBIL,9 h,0.016 mg/dL
same,GLC,9 h,159.6 mg/dL
same,IP,9 h,9.9 mg/dL
same,K,9 h,3.9 meq/L
same,LDH,9 h,111.4 IU/L
same,Na,9 h,143.2 meq/L
same,PL,9 h,142.2 mg/dL
same,RALB,9 h,2.5 g/dL
same,TBIL,9 h,0.07 mg/dL
same,TC,9 h,79.2 mg/dL
same,TG,9 h,22 mg/dL
same,TP,9 h,5.4 g/dL
same,gamma-GTP,9 h,1 IU/L
same,TERMINAL_BW,24 h,192.2 g
same,APTT,24 h,23.1 s
same,Bas,24 h,0.4%
same,Eos,24 h,1.2%
same,Fbg,24 h,165.4 mg/dL
same,Hb,24 h,13.8 g/dL
same,Ht,24 h,42.5%
same,Lym,24 h,63.2%
same,MCH,24 h,21 pg
same,MCHC,24 h,32.5%
same,MCV,24 h,64.6 fL
same,Mono,24 h,4.6%
same,Neu,24 h,28.4%
same,PT,24 h,33.2 s
same,Plat,24 h,109 x10_4/uL
same,RBC,24 h,658 x10_4/ul
same,Ret,24 h,8.6%
same,WBC,24 h,78.4 x10_2/uL
same,KIDNEY_L,24 h,0.9 g
same,KIDNEY_R,24 h,0.9 g
same,KIDNEY_TOTAL,24 h,1.8 g
same,LIVER,24 h,8.1 g
same,A/G,24 h,0.9
same,ALP,24 h,2378 IU/L
same,ALT,24 h,313.8 IU/L
same,AST,24 h,571.6 IU/L
same,BUN,24 h,12.6 mg/dL
same,CRE,24 h,0.2 mg/dL
same,Ca,24 h,10.3 mg/dL
same,Cl,24 h,106.2 meq/L
same,DBIL,24 h,0.2 mg/dL
same,GLC,24 h,147.6 mg/dL
same,IP,24 h,9.3 mg/dL
same,K,24 h,4.2 meq/L
same,LDH,24 h,727.6 IU/L
same,Na,24 h,143.2 meq/L
same,PL,24 h,99.6 mg/dL
same,RALB,24 h,2.3 g/dL
same,TBIL,24 h,0.3 mg/dL
same,TC,24 h,51.6 mg/dL
same,TG,24 h,25.2 mg/dL
same,TP,24 h,4.9 g/dL
same,gamma-GTP,24 h,1.2 IU/L
